Data as given in patent US8314150B2, “Kinase protein binding inhibitors” (priority 2008, dated 2012).

Test system: Panc-1 and Miapaca-2 pancreatic cancer cells
Assay: MTT cell viability assay, pancreatic cancer cells
Assay type: cell-based, human
Settings: 72 hours
Description: The 3-(4,5-dimethylthiazol-2-yl)-5-(3-carboxymethoxyphenyl)-2-(4-sulfophenyl)-2H-tetrazolium compound from Promega Viability kit (Madison, Ill.) was added, and the cells were incubated at 37° C. for 1-2 hours. The optical density on 96-plate was analyzed with a microplate reader at 490 nm to determine cell viability. In addition, cells were stained with trypan blue after 24 hours of treatment with Y15 and the percent of cells that stained positive were determined with a hemacytometer. Cell adhesion assay—The poly-L-Lysine or Collagen (5 μg/ml) coated 96-well plates were blocked with the blocking buffer (medium with 0.5% BSA) for 1 hour at 37 C. […] Then 2% SDS was added to the dried plated and OD at 590 nm was measured for detecting cell adhesion. […] Protein concentrations were determined using a Bio-Rad Kit. The boiled samples were loaded on Ready SDS-10% PAGE gels (Bio Rad, Inc) and used for Western blot analysis with the protein-specific antibody. […] Detachment Assay—Cells were plated with and without inhibitors for 24 hours, and detached and attached cells were counted in a hemocytometer. We calculated the percent of detachment by dividing the number of detached cells by the total number of cells. The percent of detached cells was calculated in three independent experiments. […] For each experiment 300 cells per treatment were counted. […]

Cl.Cl.Cl.Cl.Nc1cc(N)c(N)cc1N [Y15, 1,2,4,5-benzenetetraamine tetrahydrochloride]
dose from which cell viability was inhibited: 1 µM
